# Patent US6784192B2, “Piperidine compound and pharmaceutical composition thereof” (Eisai Co., Ltd., priority 2000, dated 2004)
# Assays:
# [1] = tested on: atrial muscle of anesthetized thoracotomy dog; assay: Effective refractory period (ERP) in anesthetized thoracotomy dog; assay type: in vivo; details: for Measurement Value of ERP: mean
# Excerpt: (§1) (1) An anesthetized thoracotomy dog was used for the present experiment. After opening brisket at a median line and cutting epicardium, bipolar electrodes for determination of a potential wave form were respectively stitched at the free walls of right and left atriums. Further, a wire electrode was inserted in the free wall of a right atrium to be fixed and used for electrical simulation.
# (2) A program electrical stimulation equipment was connected with the electrode for electrical stimulation at the right atrium, the electrical stimulation was carried out at a stimulation periodical length of 500 mess, and a threshold for the electrical stimulation was measured. The electrical stimulation intensity for the experiments below was set to carry out stimulation at 3-fold of this threshold. However, when the threshold was 0.7 V or less, the electrical stimulation was carried out at 2.0 V. Effective refractory period (ERP) provided early premature stimulation (S2) after the basic stimulation (S1) of 10 times, and the longest linking period in which atrium potential was not generated by the premature stimulation was referred to as ERP, while shortening the linking period (S1-S2) by 5 mess. Similar experiments were also carried out for the respective basic stimulation length (BCL) of 400, 300, 250 and 200 mess (control experiment: 1 series). After carrying out 2 times or more of the control experiments and confirming that ERP was stable, the tested substance was subsequently administered, and similar measurement was carried out. After the tested substance was administered once intravenously for 5 minutes, its keeping dose was subsequently administered intravenously. After 10 minutes of the administration start of the keeping dose, ERP was measured in the respective stimulation frequency. After completion of the one series of measurements, the concentration of the tested substance was increased and the similar experiments were repeated. The ERP and conduction time in the atrium in the respective stimulation frequency were compared with various indices under control condition. The result is shown by mean.
# [2] = tested on: atrial fibrillation (AF) in anesthetized thoracotomy dog; assay: Effect of termination and prevention of atrium fibrillation (AF) in anesthetized thoracotomy dog; assay type: in vivo; details: samples with effect / samples tested
# Excerpt: as §1, with “simulation. After cutting cervix at a median line, right and left vagal nerves were peeled. Wire electrodes for stimulating vagal nerves were inserted along the surface layers of the respective both sides to be fixed and used as stimulation for vagal nerves.” for “simulation.”
# (2) Electrical stimulation was carried out under conditions: a stimulation duration of 0.1 mess; a x stimulation frequency of 20 Hz; and a stimulation intensity of 3 to 7 V. After 5 minutes of the start of the stimulation, high frequency stimulation (10 Hz, 1 sec) was applied to the right atrium, and the induction of atrial fibrillation (hereinafter, abbreviated as “AF”) was tried. The stimulation intensity of high frequency stimulation of the right atrium was carried out from 1.0 V, and when AF was not induced, induction was tried by increasing the stimulation intensity to 5.0 V. After AF was induced, observation for 30 minutes was carried out, it was confirmed that AF is kept (control experiment). Further, when AF induced was not kept for 30 minutes, the experiment was stopped.
# (3) After confirming that AF was kept for 30 minutes or more in the control experiment, the stimulation of vagal nerve was intercepted, and the dog was rested for about one hour to be recovered. After that, similarly, AF was induced again. Further, the stimulation of vagal nerve at this time was carried out at the higher stimulation intensity by about 2 V than at the control experiment. After 5 minutes of the induction of AF, the administration of a tested substance was carried out. The tested substance was administered intravenously over 5 minutes. After completion of the administration, observation was carried out for 5 minutes, and when the termination of AF was not observed, the dose was increased and the observation was similarly carried out. When AF was stopped, the induction of AF was tried again just after termination. At this time, when AF which was continued for one minute or more was induced again, it was judged as no effect of prevention, and experiment was similarly carried out by increasing the dose.
# In the Table, the number of the denominator indicates the number of the sample used for test, and the number of the numerator indicates the number of the sample in which the effect was confirmed.
compound,measurement,setting,value
"CS(=O)(=O)c1ccsc1CCC1CCN(Cc2ccc[nH]c2=O)CC1 [Example 135, 1-[(2-Oxo-1,2-dihydro-3-pyridinyl)methyl]-4-[2-(3-methylsulfonyl-2-thienyl)ethyl]piperidine]",Measurement Value of ERP,"[1]; dose 0.1 mg/kg intravenously, BCL 200 msec",125.0 ms
same,Measurement Value of ERP,"[1]; dose 0.1 mg/kg intravenously, BCL 250 msec",138.3 ms
same,Measurement Value of ERP,"[1]; dose 0.1 mg/kg intravenously, BCL 300 msec",155.0 ms
same,Measurement Value of ERP,"[1]; dose 0.1 mg/kg intravenously, BCL 400 msec",170.0 ms
same,Measurement Value of ERP,"[1]; dose 0.1 mg/kg intravenously, BCL 500 msec",178.3 ms
same,Percent change in ERP versus pre-dose control,"[1]; dose 0.1 mg/kg, BCL 200 msec",7.1%
same,Percent change in ERP versus pre-dose control,"[1]; dose 0.1 mg/kg, BCL 250 msec",3.9%
same,Percent change in ERP versus pre-dose control,"[1]; dose 0.1 mg/kg, BCL 300 msec",5.7%
same,Percent change in ERP versus pre-dose control,"[1]; dose 0.1 mg/kg, BCL 400 msec",3.0%
same,Percent change in ERP versus pre-dose control,"[1]; dose 0.1 mg/kg, BCL 500 msec",3.1%
same,Measurement Value of ERP,"[1]; dose 0.3 mg/kg intravenously, BCL 200 msec",138.3 ms
same,Measurement Value of ERP,"[1]; dose 0.3 mg/kg intravenously, BCL 250 msec",150.0 ms
same,Measurement Value of ERP,"[1]; dose 0.3 mg/kg intravenously, BCL 300 msec",166.7 ms
same,Measurement Value of ERP,"[1]; dose 0.3 mg/kg intravenously, BCL 400 msec",181.7 ms
same,Measurement Value of ERP,"[1]; dose 0.3 mg/kg intravenously, BCL 500 msec",190.0 ms
same,Percent change in ERP versus pre-dose control,"[1]; dose 0.3 mg/kg, BCL 200 msec",18.6%
same,Percent change in ERP versus pre-dose control,"[1]; dose 0.3 mg/kg, BCL 250 msec",12.6%
same,Percent change in ERP versus pre-dose control,"[1]; dose 0.3 mg/kg, BCL 300 msec",13.7%
same,Percent change in ERP versus pre-dose control,"[1]; dose 0.3 mg/kg, BCL 400 msec",10.1%
same,Percent change in ERP versus pre-dose control,"[1]; dose 0.3 mg/kg, BCL 500 msec",9.8%
same,Measurement Value of ERP,"[1]; dose 1 mg/kg intravenously, BCL 250 msec",183.3 ms
same,Measurement Value of ERP,"[1]; dose 1 mg/kg intravenously, BCL 300 msec",195.0 ms
same,Measurement Value of ERP,"[1]; dose 1 mg/kg intravenously, BCL 400 msec",203.3 ms
same,Measurement Value of ERP,"[1]; dose 1 mg/kg intravenously, BCL 500 msec",208.3 ms
same,Percent change in ERP versus pre-dose control,"[1]; dose 1 mg/kg, BCL 250 msec",37.9%
same,Percent change in ERP versus pre-dose control,"[1]; dose 1 mg/kg, BCL 300 msec",33.2%
same,Percent change in ERP versus pre-dose control,"[1]; dose 1 mg/kg, BCL 400 msec",23.4%
same,Percent change in ERP versus pre-dose control,"[1]; dose 1 mg/kg, BCL 500 msec",20.6%
same,the termination effect,[2]; dose 0.3 mg/kg intravenously over 5 minutes,1/3
same,the prevention effect,[2]; dose 0.3 mg/kg intravenously,1/1
same,the termination effect,[2]; dose 1 mg/kg intravenously over 5 minutes,2/2
same,the prevention effect,[2]; dose 1 mg/kg intravenously,2/2
